Values of other authors as cited in US20230167447A1, “Compositions for FNIP1/FNIP2 Gene Modulation and Methods Thereof” (Genetic Intelligence, Inc, priority 2021, published 2023).

Tested on: ALS patients

## CC1=NN(c2ccccc2)C(=O)C1 [Edaravone, edaravone]
  decline in physical function in ALS patients: slows the decline in physical function
  subset of patients for which effective: around 7%
